# From patent US11660319B2, “Compositions comprising bacterial strains” (priority 2017, dated 2023)
# Tested on: BALBc mice
# Experiment: Ex vivo gene expression in colon and ileum of mice fed with bacteria
# Parameters: species or system mouse
# Experimental: Animals were allowed to habituate to their holding room for one week after arrival into the animal unit. They receive oral gavage (200 μL dose) of live biotherapeutics at a dose of 1×10^9 CFU for 6 consecutive days between 15:00 and 17:00. On day 7, the animals are decapitated, and tissues are harvested for experimentation. The in vitro results were compared with data from the ex vivo parallel analysis on the gut of mice fed with […] expression of TJP2 and occludin was quantified in the colon and ileum. […] Total RNA was extracted using the mirVanaTM miRNA Isolation kit (Ambion/Llife technologies, Paisley, UK) and DNase treated (Turbo DNA-free, Ambion/life technologies) according to the manufacturers recommendations. RNA was quantified using NanoDropTM spectrophotometer (Thermo Fisher Scientific Inc., Wilmington, Del., USA) according to the manufacturer's instructions. RNA quality was assessed using the Agilent Bioanalyzer (Agilent, Stockport, UK) according to the manufacturer's procedure and an RNA integrity number (RIN) was calculated. […] RNA was reverse transcribed to cDNA using the Applied Biosystems High Capacity cDNA kit (Applied Biosystems, Warrington, UK) according to manufacturer's instructions. Briefly, Multiscribe Reverse Transcriptase (50 U/μL) (1)(2)(1)(10) was added as part of RT master mix, incubated for 25° C. for 10 min, 37° C. for 2 h, 85° C. for 5 min and stored at 4° C. Quantitative PCR was carried out using probes (6 carboxy fluorescein-FAM) designed by Applied Biosystems to mouse specific targeted genes, while using β-actin as an endogenous control. Amplification reactions contained 1 μl cDNA, 5 μl of the 2× PCR Master mix (Roche), 900 nM of each primer and were brought to a total of 10 μl by the addition of RNase-free water. All reactions were performed in triplicate using 96-well plates on the LightCycler®480 System. Thermal cycling conditions were as recommended by the manufacturer (Roche) for 55 cycles. To check for amplicon contamination, each run contained no template controls in triplicate for each probe used. Cycle threshold (Ct) values were recorded. Data was normalized using β-actin and transformed using the 2-ΔΔCT method and presented as a fold change vs. control group.
substance,measurement,setting,value
Megasphaera massiliensis [MRx0029],expression tryptophan hydroxylase-1 (Tph1),colon,significantly increase
same,TJP1 expression in colon,colon region of the murine intestine,significantly up-regulate
same,Occludin expression in colon,"colon region of the murine intestine, p=0.073",significantly up-regulate
